Measurements: US11654196B2, “Dosing regimens for echinocandin class compounds” (priority 2012, dated 2023)

Assays:
Stability in rat plasma = assay type: in vitro ADME; conditions: rat, plasma
Description: (§1) Stock solutions of compound 22 and anidulafungin were prepared in DMSO at a concentration of 1 mg/mL. Plasma samples were prepared by mixing plasma with 10% volume of 1 M sodium phosphate, pH 7.4, to minimize pH fluctuation, and stock solution to produce plasma samples containing approximately 10,000 ng/mL compound 22 or anidulafungin. For the stability experiments in PBS buffer, plasma was replaced with phosphate buffered saline, pH 7.4. The DMSO concentration was 1% in the final incubation. Multiple individual aliquots (0.5 mL each) were prepared, capped, and incubated at 37° C. At each stability time point, the reaction was stopped by removing the sample from the incubator and adding 0.5 mL of acetonitrile containing internal standard. Samples were centrifuged for approximately 5 minutes at 10000 rpm to precipitate the proteins. Stability was measured in five different matrices (i.e. rat plasma, dog plasma, monkey plasma, human plasma, and PBS). An aliquot (100 μL) of supernatant of each sample was assayed by HPLC. The percentage of anidulafungin and compound 22 remaining at each time point was calculated by dividing the peak area ratio at each time point by the peak area ratio at time zero.

[1] = Solubility in aqueous media of varying pH; assay type: physicochemical; conditions: for solubility: ambient temperature, compound 22 as acetate salt, salt free equivalent
Stability in dog plasma = assay type: in vitro ADME; conditions: dog, plasma
Description: as §1

[2] = Stability in phosphate buffered saline (PBS); assay type: physicochemical; conditions: buffer, pH 7.4
Description: as §1

[3] = Circulating half-life in monkey; assay type: in vivo; conditions: assays conducted by applicant
[4] = Pharmacokinetics in chimpanzee, IV dose; conditions: in vivo
Description: Pharmacokinetic studies were performed in six adult female chimpanzees. Two chimpanzees received 1-mg/kg IV dose of compound 22 formulated in 5% dextrose (60-minute infusion). Two chimpanzees received 10-mg/kg oral dose of compound 22 formulated in 5% citric acid (oral bolus). Two chimpanzees received 1-mg/kg IV dose of anidulafungin formulated as package label (5% dextrose, 60-minute infusion). Plasma samples were collected from all chimps for 10 days to 22 days. PK curves are depicted in FIGS. 16A, 16B, and 18. All pharmacokinetic calculations were performed using WinNonlin version 4.1 (Pharsight Corp) by noncompartmental analysis.

[5] = Stability in monkey plasma; assay type: in vitro ADME; conditions: monkey, plasma
Description: as §1

[6] = Circulating half-life in rat; assay type: in vivo; conditions: assays conducted by applicant
[7] = Circulating half-life in chimpanzee; assay type: in vivo; conditions: assays conducted by applicant
[8] = Pharmacokinetics (oral bioavailability) following oral administration in beagle dogs; assay type: in vivo; parameters: key to Improvement (ratio of % oral bioavailability to saline): NI = no improvement in oral bioavailability in comparison to saline; conditions: for % BA / Improvement (ratio of % oral bioavailability to saline): oral
Description: Echinocandin class compounds were administered to beagle dogs weighing approximately 6-10 kg. Each animal received the appropriate prepared test article in a single oral capsule dose at a target dose level of about 7-10 mg/kg. Immediately after dosing, each animal was offered 20 mL-30 mL of water orally (Groups 1-4) or 30 mL of water orally to assist in swallowing the capsule.
Animals were treated and blood samples were drawn and analyzed as provided in Example 1.
The bioavailability of each oral dose formulation was estimated by comparison to intravenous plasma concentration data in dogs from Example 1. The results provided in Table 3 show the oral bioavailability for the echinocandin class compound in saline (formulation 11), and the improvement over saline with the use of a formulation of the invention.

[9] = Circulating half-life in dog; assay type: in vivo; conditions: assays conducted by applicant
[10] = Stability in human plasma; assay type: in vitro ADME; conditions: human, plasma
Description: as §1

CC(=O)[O-].CCCCCOc1ccc(-c2ccc(-c3ccc(C(=O)NC4CC(O)C(OCC[N+](C)(C)C)NC(=O)C5C(O)C(C)CN5C(=O)C(C(C)O)NC(=O)C(C(O)C(O)c5ccc(O)cc5)NC(=O)C5CC(O)CN5C(=O)C(C(C)O)NC4=O)cc3)cc2)cc1 (centres unmarked) [Compound 22]
% remaining (Stability in rat plasma; 0 h): 100% | % remaining (Stability in rat plasma; 1 h): 103% | % remaining (Stability in rat plasma; 2 h): 106% | % remaining (Stability in rat plasma; 4 h): 138% | % remaining (Stability in rat plasma; 8 h): 99.3% | % remaining (Stability in rat plasma; 21 h): 96.5% | % remaining (Stability in rat plasma; 44 h): 91.2% | solubility ([1]; 90% Water:10% glycerol): >102.3 mg/mL | solubility ([1]; Acetate buffer (0.01M, pH 4.5)): >145 mg/mL | solubility ([1]; Acetate buffer (0.01M, pH 5.5)): >141 mg/mL | solubility ([1]; Sterile Water for injection): >142 mg/mL | solubility ([1]; Tris buffer (0.01M, pH 8.5)): >138 mg/mL | Aqueous solubility compared with anidulafungin ([1]; variety of aqueous mediums): dramatically greater aqueous solubility than anidulafungin | % remaining (Stability in dog plasma; 0 h): 100% | % remaining (Stability in dog plasma; 1 h): 97.9% | % remaining (Stability in dog plasma; 2 h): 107% | % remaining (Stability in dog plasma; 4 h): 119% | % remaining (Stability in dog plasma; 8 h): 94.0% | % remaining (Stability in dog plasma; 21 h): 87.3% | % remaining (Stability in dog plasma; 44 h): 78.6% | % remaining ([2]; 0 h): 100% | % remaining ([2]; 1 h): 105% | % remaining ([2]; 2 h): 103% | % remaining ([2]; 4 h): 107% | % remaining ([2]; 8 h): 101% | % remaining ([2]; 21 h): 96.3% | % remaining ([2]; 44 h): 96.1% | Half-life [3]: 40 h | Clearance used to calculate human circulating concentrations ([4]; human): 3.4 mL/h/kg | Plasma half life used to calculate human circulating concentrations ([4]; human): 80 h | Clearance compared with anidulafungin [4]: lower clearance | Half-life compared with anidulafungin [4]: longer half-life | Plasma half-life (IV) ([4]; iv): 81 h | clearance ([4]; iv): 3.4 mL/h/kg | % remaining ([5]; 0 h): 100% | % remaining ([5]; 1 h): 109% | % remaining ([5]; 2 h): 110% | % remaining ([5]; 4 h): 143% | % remaining ([5]; 8 h): 115% | % remaining ([5]; 21 h): 104% | % remaining ([5]; 44 h): 93.5% | Half-life [6]: 30 h | Half-life [7]: 81 h | % BA in saline ([8]; oral about 7-10 mg/kg, formulation 11 (saline)): 3.50% | % BA ([8]; formulation 1): (8.21%) | Improvement (ratio of % oral bioavailability to saline) ([8]; formulation 1): 2.3 | % BA ([8]; formulation 3): (9.76%) | Improvement (ratio of % oral bioavailability to saline) ([8]; formulation 3): 2.8 | % BA ([8]; formulation 5): (12.3%) | Improvement (ratio of % oral bioavailability to saline) ([8]; formulation 5): 3.5 | % BA ([8]; formulation 7): (12.2%) | Improvement (ratio of % oral bioavailability to saline) ([8]; formulation 7): 3.5 | Improvement (ratio of % oral bioavailability to saline) ([8]; formulation 8): NI | Improvement (ratio of % oral bioavailability to saline) ([8]; formulation 9): NI | Improvement (ratio of % oral bioavailability to saline) ([8]; formulation 10): NI | Improvement (ratio of % oral bioavailability to saline) ([8]; formulation 12): NI | % BA ([8]; formulation 13): (8.80%) | Improvement (ratio of % oral bioavailability to saline) ([8]; formulation 13): 2.5 | % BA ([8]; formulation 14): (15.0%) | Improvement (ratio of % oral bioavailability to saline) ([8]; formulation 14): 4.3 | % BA ([8]; formulation 15): (13.4%) | Improvement (ratio of % oral bioavailability to saline) ([8]; formulation 15): 3.8 | % BA ([8]; formulation 16): (5.50%) | Improvement (ratio of % oral bioavailability to saline) ([8]; formulation 16): 1.5 | % BA ([8]; formulation 17): (11.8%) | Improvement (ratio of % oral bioavailability to saline) ([8]; formulation 17): 3.3 | Half-life [9]: 53 h | % remaining ([10]; 0 h): 100% | % remaining ([10]; 1 h): 98.5% | % remaining ([10]; 2 h): 101% | % remaining ([10]; 4 h): 125% | % remaining ([10]; 8 h): 97.5% | % remaining ([10]; 21 h): 95.7% | % remaining ([10]; 44 h): 93.3%
